Results from ChEMBL document CHEMBL5055665, “Discovery of the Triazolo[1,5-a]Pyrimidine-Based Derivative WS-898 as a Highly Efficacious and Orally Bioavailable ABCB1 Inhibitor Capable of Overcoming Multidrug Resistance” (J Med Chem, 2021).

Legend:
Mus musculus [1] = experiment: Toxicity in BALB/c mouse xenografted with human SW-620/AD300 cells assessed as change in body weight at 5 mg/kg, iv administered once every 3 days; assay type: organism-based; conditions: in vivo, 72 h, time 3 day
Mus musculus [2] = experiment: Toxicity in BALB/c mouse xenografted with human SW-620/AD300 cells assessed as mortality at 5 mg/kg, iv administered once every 3 days; assay type: organism-based; conditions: in vivo, 72 h, time 3 day
SW-620 [3] = experiment: Antitumor activity against human SW-620/AD300 cells xenografted in BALB/c nude mouse assessed as tumor growth inhibition at 5 mg/kg, iv administered once ever 3 days for 21 days; assay type: functional; set-up: scale not given: the % may be the effect or the level left
HEK293 [4] = experiment: Reversal of resistance to paclitaxel-induced cytotoxicity in human HEK293/pcDNA3.1 cells assessed as reduction in paclitaxel IC50 at 4 uM preincubated for 4 hrs followed by paclitaxel addition and measured after 72 hrs by MTT assay (reference value: 1.93 +/- 0.06 nM); assay type: functional, cell-based
KB-C2 = experiment: Reversal of resistance to paclitaxel-induced cytotoxicity in human KB-C2 cells assessed as reduction in paclitaxel IC50 at 4 uM preincubated for 4 hrs followed by paclitaxel addition and measured after 72 hrs by MTT assay (reference value: 1886.37 +/- 243.05 nM); assay type: functional, cell-based
HEK293 [5] = experiment: Reversal of resistance to paclitaxel-induced cytotoxicity in human HEK293/ABCB1 cells assessed as reduction in paclitaxel IC50 at 4 uM preincubated for 4 hrs followed by paclitaxel addition and measured after 72 hrs by MTT assay (reference value: 91.40 +/- 23.32 nM); assay type: functional, cell-based
KB 3-1 = experiment: Reversal of resistance to paclitaxel-induced cytotoxicity in human KB 3-1 cells assessed as reduction in paclitaxel IC50 at 4 uM preincubated for 4 hrs followed by paclitaxel addition and measured after 72 hrs by MTT assay (reference value: 4.54 +/- 1.59 nM); assay type: functional, cell-based
SW-620 [6] = experiment: cells; conditions: Homo sapiens
SW-620 [7] = experiment: cells; conditions: Homo sapiens; remark: listed apart in the source

Q: How did the Activity (Mus musculus [1]) turn out when `CC(=O)O[C@H]1C(=O)[C@@]2(C)[C@H]([C@H](OC(=O)c3ccccc3)[C@]3(O)C[C@H](OC(=O)[C@H](O)[C@@H](NC(=O)c4ccccc4)c4ccccc4)C(C)=C1C3(C)C)[C@]1(OC(C)=O)CO[C@@H]1C[C@@H]2O` [PACLITAXEL] was run?
A: Its Activity is “Non-Toxic”.

Q: And the Activity (Mus musculus [2])?
A: The Activity was “Non-Toxic”.

Q: What about the Activity (SW-620 [3]) of the same compound?
A: The Activity was 32%.

Q: For `COc1ccc(CCN(C)CCCC(C#N)(c2ccc(OC)c(OC)c2)C(C)C)cc1OC` (centres undefined), which IC50 (HEK293 [4]) is on record?
A: The IC50 was 1.62 nM.

Q: And the IC50 (KB-C2)?
A: Its IC50 is 7.05 nM.

Q: What about the IC50 (HEK293 [5]) of the same compound?
A: Its IC50 is 10400 nM.

Q: And the IC50 (KB 3-1)?
A: Its IC50 is 3.84 nM.

Q: What about the IC50 (SW-620 [6]) of the same compound?
A: The IC50 was 300 nM.

Q: And the IC50 (SW-620 [7])?
A: Its IC50 is 7.11 nM.
